The values below come from US20200268720A1, “METHODS OF USE OF A CLASS IIA HDAC INHIBITOR” (GlaxoSmithKline LLC, priority 2016, published 2020).

The test system of the experiment is MMTV-PyMT tumor transplants. The experiment is described as follows: Orthotopic transplant of MMTV-PyMT tumor pieces into wild-type FVBN or athymic nude Foxn1nu mice. The format is in vivo, mouse. The settings on record: treated for 20 days. The method, then:
Two transplant experiments were performed where tumors were extracted from MMTV-PyMT mice and 50-100 mm^3 pieces were inserted into the 4th mammary fat pad of either wild-type FVBN mice or athymic nude Foxn1nu mice. Five days after implant mice were randomly placed into treatment groups and treated as indicated.

On to `CC(=O)O[C@H]1C(=O)[C@@]2(C)[C@H]([C@H](OC(=O)c3ccccc3)[C@]3(O)C[C@H](OC(=O)[C@H](O)[C@@H](NC(=O)c4ccccc4)c4ccccc4)C(C)=C1C3(C)C)[C@]1(OC(C)=O)CO[C@@H]1C[C@@H]2O` [paclitaxel, 5β,20-epoxy-1,2α,4,7β,10β,13α-hexa-hydroxytax-11-en-9-one 4,10-diacetate 2-benzoate 13-ester with (2R,3S)—N-benzoyl-3-phenylisoserine, reference compound], for which the “transplant growth in T cell deficient athymic nude (Foxn1nu) recipient mice” value is recorded as “efficacious”.
